Measurements from publication PMC7970304, “The Effects of Apelin and Elabela Ligands on Apelin Receptor Distinct Signaling Profiles” (Frontiers in Pharmacology, 2021).

Experiments:
APJ (Apelin receptor) [1] = target: T1, APJ (Apelin receptor) (Homo sapiens, UniProt P35414); experiment: BRET-based cAMP biosensor (CAMYEL) assay; format: cell-based
T1 sequence (P35414 1-380): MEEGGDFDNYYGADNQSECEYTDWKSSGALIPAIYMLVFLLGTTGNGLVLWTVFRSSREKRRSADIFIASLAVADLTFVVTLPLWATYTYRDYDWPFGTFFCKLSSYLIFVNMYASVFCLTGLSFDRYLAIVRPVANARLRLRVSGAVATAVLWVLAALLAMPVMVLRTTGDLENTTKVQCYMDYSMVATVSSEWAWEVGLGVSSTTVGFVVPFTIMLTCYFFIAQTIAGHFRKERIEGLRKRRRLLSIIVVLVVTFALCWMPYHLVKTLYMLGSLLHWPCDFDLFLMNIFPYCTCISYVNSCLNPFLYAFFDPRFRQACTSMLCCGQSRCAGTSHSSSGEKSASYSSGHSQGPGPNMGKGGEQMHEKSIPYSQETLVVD
Method: The cAMP concentration was measured using a BRET-based cAMP biosensor ([Barak et al., 2008]; [Ji et al., 2017]) in HEK293 cells transiently co-expressing YFP-Epac-RLuc and APJ. The sensor is composed of an N-terminal truncated variant of EPAC tagged with Rluc and YFP at N-terminal and C-terminal, respectively. […] At 24 h after transfection, cells were digested and plated into a 96-well microplate for 24 h following adding the substrate coelenterazine H into the medium at the final concentration of 5 µM and the nonspecific phosphodiesterase inhibitor IBMX (40 μM) for 20 min, and the cells were stimulated for 10 min with forskolin (10 μM).
(A) A schematic diagram of YFP-cAMP-Rluc fusion expression vector. […] Data represent mean ± SEM from four independent experiments (Supplementary Table S1).
(§1) The concentration-response data for the ligands in various assays were analyzed to determine the biases of the ligands for G protein dependent signaling or β-arrestin dependent signaling, according to a previously published method ([Kenakin et al., 2012]; [Hager et al., 2016]; [Hothersall et al., 2017]). Briefly, the concentration-response data for each ligand were fitted to the Black–Leff operation model to obtain the values of τ and K A, using the following equation: Response=[A]^nτ^nEm/[A]^nτ^n+([A]KA)^n where [A] is the concentration of the agonist, E m is the maximal response of the system, n is the transducer slope, and K A and τ describe the affinity and efficacy of the agonist, respectively. In the data fitting, the reparametrized form of the equation proposed by [Kenakin et al. (2012)] was used: Response=Em/1+exp{nln[1+exp(β1)/[A]]−nβ2} where β 1 and β 2 are the natural logarithm of K A and τ, respectively, and E m was set to 1. Thus, for each concentration-response curve, a non-linear regression was performed to fit the above equation to give β 1 and β 2 (as well as n). Log (τ/K A) values (“transduction coefficients”) for each ligand vs. each pathway were obtained. […] The ΔΔlog (τ/K A), or Log (Bias), which is the logarithm of the bias factor for a given pathway over a reference pathway (here, intracellular calcium release), was calculated for each ligand as Δlog (τ/K A)–Δlog (τ/K A)Calcium. The 95% confidence interval (CI) was expressed as the mean ± standard error; Log (Bias) values, whose 95% CI crosses 0, were considered statistically insignificant.
(§2) The data were analyzed using GraphPad Prism v5.0. All the data are presented as the mean ± SEM. Differences between groups were compared by one-way analysis of variants (ANOVA), followed by post-hoc tests (Tukey’s test), When p < 0.05, the difference was considered significant. All experiments were repeated at least four times. The dose-response curves were generated using non-linear fitting model log (agonist) vs. response (three-parameters), with Hill Slope held to 1, i.e., Y = Bottom + (Top-Bottom)/(1 + 10^(LogEC50-X)).
P<0.05 was considered as statistically significant. Control group (HG, Cells were stimulated with high glucose (Glucose Concentration: 4500 mg/L, HEPES, No Phenol Red). Data represent mean ± SEM from four independent experiments. Statistical analysis (Table S1)

APJ (Apelin receptor) [2] = target: T1, APJ (Apelin receptor); experiment: Radioligand competition binding assay, [125I]-apelin-13, HEK-293/APJ membranes; set-up: APJ membrane preparations were obtained from transiently transfected HEK293 cells; host or cells: HEK293 cells, transiently transfected; membranes prepared; conditions: [125I]-apelin-13 competition
Method: APJ membrane preparations were obtained from transiently transfected HEK293 cells. HEK293 cells were cultured in complete DMEM (DMEM plus 10% FBS) for 24 h, until they reached at least 70% confluence. Transfection reagent containing 20 μg of the APJ expression plasmid was added, and the cells were incubated for another 24 h. The cells were then harvested into 25 ml homogenization buffer (HB) [250 mM sucrose and 25 mM HEPES (pH 7.3); adjusted to pH 7.5 at 4°C and then filtered] supplemented with 250 μL phenylmethylsulfonyl fluoride (PMSF), homogenized using an IKA T25 Ultra Turrax (24,000 rpm), and centrifuged at 6,025 rpm for 15 min at 4°C. […]
The binding reaction was stopped by rapid filtration through polyethyleneimine (PEI)-coated GF/B plates using a cell harvester, and the plates were washed three times with ice-cold wash buffer [50 mM HEPES (pH 7.4), 500 mM NaCl, and 0.1% BSA; filtered and stored at 4°C]. The filtration plates were dried at 37°C for 2 h; 50 μL scintillation cocktail (Perkin Elmer, Wellesley, MA, United States), was added to each well; and the radioactivity was measured using a Perkin Elmer 1450 MicroBeta TriLux Microplate Scintillation and Luminescence Counter.
The binding reaction was stopped, the plates were washed and dried, the scintillation cocktail was added, and the radioactivity was measured as described above.

APJ (Apelin receptor) [3] = target: T1, APJ (Apelin receptor); experiment: Intracellular calcium assay (Fluo-4 NW); format: cell-based
Method: HEK293 cells stably expressing APJ were plated at 10^4 cells per well in 96-well black microplates pretreated with a 0.1 mg/ml solution of poly-D-lysine for 24 h. Calcium fluorescence signals in cells were measured using the Fluo-4 NW calcium assay kit (Thermo Fisher Scientific) according to the manufacturer’s instructions ([Chen et al., 2014]; [Wang et al., 2017]). Before detection, cells were washed twice with assay buffer (1 × HBSS, 20 mM HEPES). One hundred microlitres of the dye loading solution was added to each well of a 96-well plate. Cells were incubated at 37°C in 5% CO2 humidified atmosphere for 30 min, then at room temperature for an additional 30 min. Cells were stimulated with six ligands (100 nM) for 5 min, then calcium signals were immediately measured on a Mithras LB940 plate reader (Berthold Technologies, Bad Wildbad, Germany) with an excitation wavelength of 485 nm and an emission wavelength of 525 nm. Dose response curve: cells were stimulated with different concentrations of six peptides for 30 s, and calcium fluorescence was detected. The calculation of the calcium fluorescence ratio was described previously ([Chen et al., 2014]).
as §1, §2
HEK293 cells stably expressed APJ, and in 30 s, the dose response curve stimulated with six peptides was measured. Data represent mean ± SEM from four independent experiments (Supplementary Table S2). With six peptides (B) stimulation, the dose-response curve of GRK2 recruited to APJ was measured by BRET (at 15 min). p < 0.05 was considered as statistically significant. Data represent mean ± SEM from four independent experiments (Supplementary Table S3).
P<0.05 was considered as statistically significant. Control group (HG, Cells were stimulated with high glucose).

[4] = Ca2+ (reference pathway), reference ligand Apelin-13

- P vs HG, cAMP production (APJ (Apelin receptor) [1]; 0.001 nM): P>0.05
- P vs HG, cAMP production (APJ (Apelin receptor) [1]; 0.01 nM): P>0.05
- P vs HG, cAMP production (APJ (Apelin receptor) [1]; 0.1 nM): P>0.05
- P vs HG, cAMP production (APJ (Apelin receptor) [1]; 1 nM): ^**P<0.01
- P vs HG, cAMP production (APJ (Apelin receptor) [1]; 10 nM): ^***P<0.001
- P vs HG, cAMP production (APJ (Apelin receptor) [1]; 100 nM): ^***P<0.001
- P vs HG, cAMP production (APJ (Apelin receptor) [1]; 1000 nM): ^***P<0.001
- Bias factor (APJ (Apelin receptor) [1]; cAMP over Ca2+, reference Apelin-13): 38.0
- Log (Bias) (APJ (Apelin receptor) [1]; cAMP over Ca2+, reference Apelin-13, footnote a = statistically insignificant): 1.6 ± 0.3
- bias over calcium release (APJ (Apelin receptor) [1]; cAMP pathway): 38 fold
- log (τ/KA) (APJ (Apelin receptor) [1]; cAMP, Black–Leff operational model): −0.1 ± 0.1
- Δlog (τ/KA) (APJ (Apelin receptor) [1]; cAMP, relative to Apelin-13): 0.0 ± 0.2
- P vs HG, intracellular calcium (APJ (Apelin receptor) [3]; 0.001 nM): P>0.05
- P vs HG, intracellular calcium (APJ (Apelin receptor) [3]; 0.01 nM): P>0.05
- P vs HG, intracellular calcium (APJ (Apelin receptor) [3]; 0.1 nM): P>0.05
- P vs HG, intracellular calcium (APJ (Apelin receptor) [3]; 1 nM): P>0.05
- P vs HG, intracellular calcium (APJ (Apelin receptor) [3]; 10 nM): ^*P<0.05
- P vs HG, intracellular calcium (APJ (Apelin receptor) [3]; 100 nM): ^***P<0.001
- P vs HG, intracellular calcium (APJ (Apelin receptor) [3]; 1000 nM): ^***P<0.001
- Bias factor (APJ (Apelin receptor) [3]; [4]): 1.0
- Log (Bias) (APJ (Apelin receptor) [3]; [4]): 0.0
- log (τ/KA) (APJ (Apelin receptor) [3]; Ca2+ pathway, Black–Leff operational model): −1.8
- Δlog (τ/KA) (APJ (Apelin receptor) [3]; Ca2+ pathway, relative to Apelin-13): −1.6
Compound: CSCC[C@H](NC(=O)[C@@H]1CSSC[C@H](NC(=O)[C@H](CC(N)=O)NC(=O)[C@H](Cc2c[nH]cn2)NC(=O)[C@H](CCCCN)NC(=O)[C@H](CCCNC(=N)N)NC(=O)[C@@H](N)CC(C)C)C(=O)N[C@@H](CC(C)C)C(=O)N[C@@H](CCC(N)=O)C(=O)N[C@@H](CCCNC(=N)N)C(=O)N[C@@H](CCCNC(=N)N)C(=O)N1)C(=O)N1CCC[C@H]1C(=O)N[C@@H](CC(C)C)C(=O)N[C@@H](Cc1c[nH]cn1)C(=O)N[C@@H](CO)C(=O)N[C@@H](CCCNC(=N)N)C(=O)N[C@H](C(=O)N1CCC[C@H]1C(=O)N[C@@H](Cc1ccccc1)C(=O)N1CCC[C@H]1C(=O)O)C(C)C [Elabela-21]
- binding affinity (in words) (APJ (Apelin receptor) [2]): slightly weaker binding affinity than Elabela-32
